# Data taken from ChEMBL document CHEMBL1121905, “erythro-5-[1-Hydroxy-2-(isopropylamino)butyl]-7-hydroxycarbostyril, a terbutaline-type derivative of the bronchodilator procaterol” (1981).
# Key:
# Canis familiaris [1] = assay: Compound was tested in anesthetized dogs for inhibition of bronchoconstriction (equipotent dose at ED50) Mean ED50 value, obtained at a dose of 0.054 ug/kg; type: functional; conditions: Canis lupus familiaris, Lung
# Canis familiaris [2] = assay: Compound was tested in anesthetized dogs for increase in heart rate (equipotent dose at ED25) Mean ED25 value, obtained at a dose of 0.021 ug/kg; type: functional; conditions: Canis lupus familiaris
# Cavia porcellus [3] = species: Cavia porcellus; assay: Intrinsic activity (n=5) in guinea pig right atrium
# Cavia porcellus [4] = species: Cavia porcellus; assay: Intrinsic activity in guinea pig trachea; type: functional
# Cavia porcellus [5] = species: Cavia porcellus; assay: Compound was tested for effective dose required for 25% of maximum response in guinea pig right atrium
# Cavia porcellus [6] = species: Cavia porcellus; assay: Compound was tested for effective dose required for 50% of maximum response in guinea pig trachea; type: functional; conditions: read-out: ED50 (the source's name)
# Cavia porcellus [7] = species: Cavia porcellus; assay: Compound was tested for effective dose required for 25% of maximum response in guinea pig right atrium; maximal activity was obtained at 1 x 10 e-5 mol/L
EC50 (Cavia porcellus [6]) [nM],Structure (SMILES),ED50 (Canis familiaris [1]) [mg/kg],ED25 (Canis familiaris [2]) [mg/kg],Intrinsic activity (Cavia porcellus [3]),Intrinsic activity (Cavia porcellus [4]),ED25 (Cavia porcellus [5]) [nM],ED25 (Cavia porcellus [7])
–,CC(C)NCC(O)c1ccc(O)c(O)c1 (configuration not stated) [ISOPROTERENOL],0.001,0.001,–,–,–,–
1220,CCC(NC(C)C)C(O)c1cc(O)cc2c1CCC(=O)N2 (configuration not stated),–,–,0.27,0.6,566,–
11,CCC(NC(C)C)C(O)c1ccc(O)c2[nH]c(=O)ccc12 (configuration not stated) [PROCATEROL],–,–,0.6,0.98,5.7,–
225,CCC(NC(C)C)C(O)c1cc(O)cc2nc(O)ccc12 (configuration not stated),0.0417,0.0871,–,0.5,–,maximal activity was obtained at 1 x 10 e-5 mol/L
–,CC(C)(C)NCC(O)c1cc(O)cc(O)c1 (configuration not stated) [TERBUTALINE],–,–,0.73,0.7,–,–
